This passage reports Ki, EC90 and AUC results from ChEMBL document CHEMBL1157517, “Hepatitis C virus NS3-4A serine protease inhibitors: SAR of new P1 derivatives of SCH 503034” (Bioorg Med Chem Lett, 2008).

Data set [1] is described as follows: Inhibition of HCV NS3 serine protease. Further details: species or system Hepacivirus hominis.
Another data set relates to Hepatitis C virus. Put plainly: Antiviral activity against HCV. The format is functional, Hepacivirus hominis.
Data set [2] can be described thus: AUC in rat at 3 mg/kg, po. It is filed as ADME, organism-based. The arrangement: dose 3 mg/kg, route oral. To be noted: plasma.

For orientation: Ki means a dissociation constant, usually derived from enzyme kinetics or from competition with a known ligand. The low end stands for tighter binding, the high end for weaker binding. In data set [1], `CC(C)(C)NC(=O)N[C@H](C(=O)N1C[C@H]2[C@@H]([C@H]1C(=O)NC(CC1(O)CCC1)C(=O)C(N)=O)C2(C)C)C(C)(C)C` (stereo partly drawn) yielded a Ki of 163 µM.

What is called EC90 is the concentration at which the effect reaches the 90% level. In general, AUC refers to the area under the concentration-time curve, a measure of exposure. Low readings indicate less exposure, high ones more exposure. Consider `CC(C)(C)NC(=O)N[C@H](C(=O)N1C[C@H]2[C@@H]([C@H]1C(=O)NC(CC1CC(F)(F)C1)C(=O)C(N)=O)C2(C)C)C(C)(C)C` (stereo partly drawn), for which the Ki in data set [1] worked out at 0.098 µM. Moreover, the 90% effect level in the data set with Hepatitis C virus (EC90) was put at 1.2 µM. The same compound displayed an AUC in data set [2] of 1100 nM·h. In the case of `CC(C)(C)NC(=O)N[C@H](C(=O)N1C[C@H]2[C@@H]([C@H]1C(=O)NC(CC(F)(F)F)C(=O)C(N)=O)C2(C)C)C(C)(C)C` (stereo partly drawn), the Ki in data set [1] stood at 0.12 µM. Same read-out and setting: the value for `CC(F)(F)CC(NC(=O)[C@@H]1[C@@H]2[C@H](CN1C(=O)[C@@H](NC(=O)NC(C)(C)C)C(C)(C)C)C2(C)C)C(=O)C(N)=O` (stereo partly drawn) was 0.23 µM; that for `CCC(F)(F)CC(NC(=O)[C@@H]1[C@@H]2[C@H](CN1C(=O)[C@@H](NC(=O)NC(C)(C)C)C(C)(C)C)C2(C)C)C(=O)C(N)=O` (stereo partly drawn) was 0.36 µM. In turn, `CC(C)(C)NC(=O)N[C@H](C(=O)N1C[C@H]2[C@@H]([C@H]1C(=O)NC(CCC(F)(F)F)C(=O)C(N)=O)C2(C)C)C(C)(C)C` (stereo partly drawn) displayed a Ki in data set [1] of 0.065 µM. In the data set with Hepatitis C virus, this compound registered an EC90 of 0.6 µM. For the same compound, the AUC in data set [2] is 20 nM·h. For `CC(C)(C)NC(=O)N[C@H](C(=O)N1C[C@H]2[C@@H]([C@H]1C(=O)NC(C[C@H]1C[C@@H](O)C1)C(=O)C(N)=O)C2(C)C)C(C)(C)C` (stereo partly drawn), the Ki in data set [1] was 0.16 µM. Compound `CC(C)(C)NC(=O)N[C@H](C(=O)N1C[C@H]2[C@@H]([C@H]1C(=O)NC(CCCC(F)(F)F)C(=O)C(N)=O)C2(C)C)C(C)(C)C` (stereo partly drawn) registered a Ki in data set [1] of 1.3 µM. `CC(C)(C)NC(=O)N[C@H](C(=O)N1C[C@H]2[C@@H]([C@H]1C(=O)NC(CC1(F)CCC1)C(=O)C(N)=O)C2(C)C)C(C)(C)C` (stereo partly drawn): the Ki in data set [1] turned out to be 0.21 µM. In addition, in data set [2], the area under the curve (AUC) is 310 nM·h. For the compound `CC(C)(C)NC(=O)N[C@H](C(=O)N1C[C@H]2[C@@H]([C@H]1C(=O)NC(CC1CC1(F)F)C(=O)C(N)=O)C2(C)C)C(C)(C)C` (stereo partly drawn), in data set [1], the affinity corresponds to a Ki of 0.05 µM. In the data set on Hepatitis C virus, this compound had an EC90 of 1 µM. In data set [1], `CC(C)(C)NC(=O)N[C@H](C(=O)N1C[C@H]2[C@@H]([C@H]1C(=O)NC(CC1CCC1)C(=O)C(N)=O)C2(C)C)C(C)(C)C` (stereo partly drawn) [BOCEPREVIR] registered a Ki of 0.014 µM. In the data set on Hepatitis C virus, this compound registered an EC90 of 0.35 µM.
